This is an account of results in paper PMC12019622 (World Journal of Experimental Medicine, 2025).

Each structure is given as a SMILES string.

The test system of data set [1] is HKBMM malignant meningioma cell line. Briefly: Growth inhibition experiment. It counts as cell-based. To be noted: read-out: IC50 value.
Data set [2] relates to IOMM-Lee malignant meningioma cell line. Description: Growth inhibition experiment. It counts as cell-based. The conditions noted are these: read-out: IC50 value.
In data set [3] the test system is blood-brain barrier (BBB). The conditions noted are these: cited from earlier work.
The nature of data set [4]: Tissue distribution: blood concentration and brain distribution by HPLC. It counts as in vivo, C57BL/6 (B6) mice. The conditions noted are these: male, C57BL/6, mouse, intraperitoneal, 2 mg/kg.
For a further data set, the system named is Malignant meningioma. To be noted: clinical, cited from earlier work; for partial response (PR) rate: malignant meningioma.

Turning to `COc1cc(C=CC(=O)C=Cc2ccc(O)c(OC)c2)ccc1O` [GO-Y022, 1,5-bis (4-hydroxy-3-methoxyphenyl)-1,4-pentadiene-3-one], the IC50 in data set [1] is 4.5 µM; in data set [2], 4.3 µM. The “permeability across the blood-brain barrier (BBB)” value in data set [3] is given as 8.2 ± 1.3 × 10^−6 cm/s.
In data set [4] (brain), `COCOc1cc(/C=C/C(=O)/C=C/c2cc(OCOC)cc(OCOC)c2)cc(OCOC)c1` [GO-Y030, (1E,4E)-1,5-bis [3,5-bis (methoxymethoxy)phenyl] penta-1,4-dien-3-one] came in with a concentration at 1 h of 0 ng/g, a concentration at 3 h of 26.8 ng/g and a concentration at 6 h of 23.1 ng/g. In data set [4] (serum), the concentration at 1 h came out at 18 ng/mL, the concentration at 3 h was 46.7 ng/mL and the concentration at 6 h turned out to be 58.2 ng/mL.
Regarding `CCN(CC)CCNC(=O)c1c(C)[nH]c(/C=C2\C(=O)Nc3ccc(F)cc32)c1C` [Sunitinib], in the data set with Malignant meningioma (meningioma), the “6-month progression-free survival rate” value was 42% and the PR rate is on record as 5.55%.
With `COc1cc(/C=C/C(=O)CC(=O)/C=C/c2ccc(O)c(OC)c2)ccc1O` [curcumin, Curcumin, reference compound], the results for the concentration for half-maximal inhibition (IC50) in data set [1] and in data set [2] were 20 µM and 13.3 µM, respectively. The “permeability across the blood-brain barrier (BBB)” value in data set [3] is reported as 0.60 ± 0.67 × 10^−6 cm/s.
In the case of `NC(=O)NO` [hydroxyurea], the “partial response (PR) rate” value in the data set with Malignant meningioma is on record as 0%-10%.
`CC#C[C@]1(O)CC[C@H]2[C@@H]3CCC4=CC(=O)CCC4=C3[C@@H](c3ccc(N(C)C)cc3)C[C@@]21C` [mifepristone]: in the data set on Malignant meningioma, the “partial response (PR) rate” value is 1.4%-30.76%.
Turning to `CC/C(=C(\c1ccccc1)c1ccc(OCCN(C)C)cc1)c1ccccc1` [tamoxifen], in the data set with Malignant meningioma, the “partial response (PR) rate” value is 5%-16.66%.
